# Results published in US7968558B2, “Amidine derivatives of 2-heteroaryl-quinazolines and quinolines; potent analgesics and anti-inflammatory agents” (Rottapharm S.p.A., priority 2006, dated 2011).
# Read-outs that look alike come from different tables or passages of the source.
# How the values were obtained:
# [1] = system: Zymosan induced paw volume increase; assay: Zymosan-induced paw oedema; assay type: in vivo, rat; details: oral
# Procedure: The interplantar injection of Zymosan-induced mechanical hyperalgesia was used as a model of inflammatory pain (Meller, Neuropharmacology, 1994, 33, 1471-1478). In this model, typically a male Sprague-Dawley or Wistar rat (200-250 g) receives an interplantar injection of 3 mg/100 μl zymosan into one hind paw. A marked inflammation occurs in this hind paw. Drugs are administered orally for evaluation of efficacy, 30 min. before the inflammatory insult. The hyperalgesia induced by zymosan administration was evaluated using the Randall-Selitto method (Arch. Int. Pharmacodyn., 1957, 111, 409). The quantitation of the analgesic effect is achieved by an analgesimeter, which consist in applying to the inflamed paw an increasing weight (from 130-140 g up to 500 g). The difference in the mechanical pain threshold between the basal value (generally 230-250 g) and the one tolerated by the animals treated with the drug, determined 4 hours after the inflammatory challenge, is defined as mechanical hyperalgesia.
# Mechanical hyperalgesia is expressed for the compounds of the invention as ED50, which is the dose of the administered compound able to increase the pain threshold by 50% in comparison with the group of control animals. The corresponding ED100, representing the dose able of reducing of 100% the pain threshold, can be calculated for those cases where there is a linear dose-response relationship. In vivo anti-inflammatory effect exerted by the compound of the invention can be assessed in the same Zymosan induced inflammation test described above, by measuring the volume of the oedema induced by the inflammatory agent. The oedema was evaluated as the increase in the volume of the Zymosan injected paw within a time of 0-2 hrs. The measurements of the variation of the oedema volume of the paw were recorded using hydroplethysmometer, which consists of two plastic cuvettes containing a surfactant liquid, the larger one being used for immersion of the paw, connected to the smaller one which contains a trans-ducer capable of recording small displacements of the volume used for the measure. The paw is immersed in the cuvettes up to the tibiotarsal joint. The volume of the liquid displaced is proportional to the extent of the inflammation. The efficacy of the compounds of the invention in preventing oedema formation is expressed as ED30, and is measured 2 hours after the inflammatory challenge, and represents the dose able of reducing of 30%, the Zymosan induced paw volume increase in comparison to control animals (animals treated with Zymosan but treated with only distilled water instead of the testing compound). The corresponding ED50, representing the dose able of reducing of 50% the zymosan induced paw volume increase, can be calculated for those cases where there is a linear dose-response relationship.
# In both the experiments, for each test compound, at least three doses were used, with 10 animals per group. Compounds of the invention were tested at 10, 20 and 40 mg/Kg.
# IL-1 production = IL-1 production in IL-1 stimulated human chondrosarcoma cell line; assay type: cell-based; details: Compound concentration is 10 μM
# Text: (§1) The compounds of the invention have been found effective in interfering with cytokine production in several cell lines, representative examples of this effect are reported in Table 3, for two representative cytokines, in IL-1 stimulated human chondrosarcoma cell line.
# [2] = system: mechanical hyperalgesia associated with STZ-induced diabetes; assay: STZ-induced diabetes mechanical hyperalgesia (neuropathic pain); assay type: in vivo, rat
# Procedure: Streptozotocin (STZ)-induced diabetes in the rat has been increasingly used as a model of painful diabetic neuropathy to assess the efficacies of potential analgesic agents (C. Courteix, Pain 1993, 53, 81-8). The compounds of the invention were tested for efficacy in reducing mechanical hyperalgesia associated with STZ-induced diabetes in the rat, according to the experimental model as described by the literature. Diabetes was produced with the injection of a single dose (75 mg/Kg i.p.) of STZ. In the following four weeks after the induction of diabetes the clinical symptoms (weight, body and skin temperature, motility and hyperglycemia) progressively developed by the animals, are strictly monitored. After four weeks, the scores obtained in diabetic rats to various pain stimuli (in particular mechanical stimuli) were grater than those in normal rats, indicating hyperalgesia. The hyperalgesia induced by diabetes was evaluated using the Randall-Selitto method as above described, and quantitated using the analgesimeter. Also in this case, the difference in the mechanical pain threshold between the basal value (generally 230-250 g) and the one tolerated by the animals treated with the drug, is defined as mechanical hyperalgesia. The compounds of the invention were administered i.p. (solution, Tween 80, 10% in saline) at different doses, and mechanical hyperalgesia was measured at the reported time, as maximum percent effect (MPE) which represents the difference (%) in pain threshold between the animals treated with the drug and the controls that received only the vehicle, compared with the weight borne by naïf non-diabetic controls. A 100% protection means that the diabetic animals treated with the compound can tolerate the same stimulus (weight) as the naïf non-diabetic animals. MPE higher than 100% means that the diabetic animal treated with the compound can tolerate stimuli (weight) higher than the control non-diabetic animals (hypoalgesia).
# [3] = system: formalin-induced paw licking; assay: Formalin (licking) test; assay type: in vivo, mice; details: Mus musculus, ip, 1 hour before formalin
# Procedure: The formalin test is increasingly used as a model of injury-produced pain (FV. Abbott, Pain, 1995, 60, 91-102). The procedure used for the evaluation of the compounds of the invention was similar to that reported by literature (S. Hunskaar, Pain, 1987, 30, 103-104), and consisted of the injection of 20 μl of 1% solution of formalin dissolved in distilled water, in the plantar surface of the right hind paw of the mice. Immediately, the animals were placed individually in an observation chamber. The amount of time that the animal spent licking the injected paw, considered indicative of pain, was recorded during 30 min. following formalin injection. The initial nociceptive scores normally peaked 5 min after formalin injection (early phase) and 15-30 min. after formalin injection (late phase), representing both the neurogenic and inflammatory pain responses respectively.
# Animals were treated i.p. with an aqueous solution of the tested compound (doses: 3, 10, 30 mg/Kg), 1 hour before the formalin injection. Control animals received only the vehicle.
# In Table 8, the analgesic effect elicited in this test by a representative compound of Formula (I), is expressed as ED50 both for the early and late phase, and compared with the performance of the standard reference, paracetamol.
# IL-6 production = IL-6 production in IL-1 stimulated human chondrosarcoma cell line; assay type: cell-based; details: Compound concentration is 10 μM
# Text: as §1
structure (smiles),measurement,setting,value
"CC(=N)Nc1ccc2nc(-c3ccc4c(c3)OCO4)ncc2c1 [Example 1, N-[2-(1,3-benzodioxol-5-yl)quinazolin-6-yl]acetamidine]",ED50,"[1]; Rattus norvegicus, calculated from linear dose-response, read-out: Oedema Reduction ED50",23.1 mg/kg
same,Oedema Reduction ED30,[1]; 2 hours after challenge,12.2 mg/kg
same,Inhibition (%) of IL-1 production,IL-1 production,50%
same,MPE 0.5 hrs.,[2]; 3 mg/Kg i.p.,15%
same,MPE 1.5 hrs.,[2]; 3 mg/Kg i.p.,30%
same,MPE 3 hrs.,[2]; 3 mg/Kg i.p.,45%
same,MPE 0.5 hrs.,[2]; 10 mg/Kg i.p.,59%
same,MPE 1.5 hrs.,[2]; 10 mg/Kg i.p.,34%
same,MPE 3 hrs.,[2]; 10 mg/Kg i.p.,46%
same,MPE 0.5 hrs.,[2]; 30 mg/Kg i.p.,110%
same,MPE 1.5 hrs.,[2]; 30 mg/Kg i.p.,137%
same,MPE 3 hrs.,[2]; 30 mg/Kg i.p.,101%
same,ED50,"[3]; early phase, read-out: Analgesic effect ED50 (mg/Kg) Early phase",19 mg/kg
same,ED50,"[3]; late phase, read-out: Analgesic effect ED50 (mg/Kg) Late phase",13 mg/kg
same,Inhibition (%) of IL-6 production,IL-6 production,65%
